Data on one compound can be found in ChEMBL document CHEMBL3525955, “Glucuronidation of the red clover isoflavone irilone by liver microsomes from different species and human UDP-glucuronosyltransferases” (Drug Metab Dispos, 2011).

Common to all, as to type: ADME
The target in data set [1] is T1, UDP-glucuronosyltransferase 1A7 (Homo sapiens, UniProt Q9HAW7).
T1 sequence (Q9HAW7 whole entry): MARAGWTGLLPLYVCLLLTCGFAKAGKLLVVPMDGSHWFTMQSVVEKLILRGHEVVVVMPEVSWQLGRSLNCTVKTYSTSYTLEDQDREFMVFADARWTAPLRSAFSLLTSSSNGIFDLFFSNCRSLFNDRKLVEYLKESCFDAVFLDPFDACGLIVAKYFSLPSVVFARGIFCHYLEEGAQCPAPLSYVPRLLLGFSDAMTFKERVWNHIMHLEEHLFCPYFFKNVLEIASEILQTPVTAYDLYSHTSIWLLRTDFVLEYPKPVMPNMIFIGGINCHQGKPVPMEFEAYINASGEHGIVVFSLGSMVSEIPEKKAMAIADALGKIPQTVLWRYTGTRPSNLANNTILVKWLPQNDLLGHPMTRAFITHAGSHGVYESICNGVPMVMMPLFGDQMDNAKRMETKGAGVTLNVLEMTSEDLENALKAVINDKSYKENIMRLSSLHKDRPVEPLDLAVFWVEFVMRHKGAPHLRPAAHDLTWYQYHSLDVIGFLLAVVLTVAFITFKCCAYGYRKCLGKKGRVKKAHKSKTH
In words: Activity of human recombinant UGT1A7 assessed as intrinsic clearance incubated for 5 mins prior to UDPGA addition measured after 90 mins. The note with it: recombinant enzyme, 1.5 h.

Data set [2] deals with T2, UDP-glucuronosyltransferase 1A8 (Homo sapiens, UniProt Q9HAW9).
T2 sequence (Q9HAW9 whole entry): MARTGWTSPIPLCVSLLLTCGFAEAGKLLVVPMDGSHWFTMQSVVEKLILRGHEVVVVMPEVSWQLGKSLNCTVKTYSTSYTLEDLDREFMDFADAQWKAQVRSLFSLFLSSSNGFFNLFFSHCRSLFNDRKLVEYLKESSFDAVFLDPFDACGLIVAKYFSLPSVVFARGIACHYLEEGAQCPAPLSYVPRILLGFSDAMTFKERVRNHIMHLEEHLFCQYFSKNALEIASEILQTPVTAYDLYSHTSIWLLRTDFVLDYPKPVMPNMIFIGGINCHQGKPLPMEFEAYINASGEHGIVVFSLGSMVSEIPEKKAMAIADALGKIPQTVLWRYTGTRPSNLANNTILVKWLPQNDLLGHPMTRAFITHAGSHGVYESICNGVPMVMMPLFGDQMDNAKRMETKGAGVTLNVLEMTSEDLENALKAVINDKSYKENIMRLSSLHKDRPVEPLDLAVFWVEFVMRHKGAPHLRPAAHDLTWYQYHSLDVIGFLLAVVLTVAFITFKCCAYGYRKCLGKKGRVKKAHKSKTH
In words: Drug metabolism assessed as human recombinant UGT1A8-mediated irilone-O-5-monoglucuronide formation at 25 uM incubated for 5 mins prior to UDPGA addition measured after 90 mins by HPLC-DAD analysis. Conditions: recombinant enzyme, 1.5 h.

Data set [3] deals with T2, UDP-glucuronosyltransferase 1A8. The experiment in a line: Substrate inhibition of human recombinant UGT1A8 assessed as IRI-O-4'-monoglucuronide formation incubated for 5 mins prior to UDPGA addition measured after 90 mins by Eadie-Hoftsee plot analysis.
The target in data set [4] is T3, UDP-glucuronosyltransferase 1A10 (Homo sapiens, UniProt Q9HAW8).
T3 sequence (Q9HAW8 whole entry): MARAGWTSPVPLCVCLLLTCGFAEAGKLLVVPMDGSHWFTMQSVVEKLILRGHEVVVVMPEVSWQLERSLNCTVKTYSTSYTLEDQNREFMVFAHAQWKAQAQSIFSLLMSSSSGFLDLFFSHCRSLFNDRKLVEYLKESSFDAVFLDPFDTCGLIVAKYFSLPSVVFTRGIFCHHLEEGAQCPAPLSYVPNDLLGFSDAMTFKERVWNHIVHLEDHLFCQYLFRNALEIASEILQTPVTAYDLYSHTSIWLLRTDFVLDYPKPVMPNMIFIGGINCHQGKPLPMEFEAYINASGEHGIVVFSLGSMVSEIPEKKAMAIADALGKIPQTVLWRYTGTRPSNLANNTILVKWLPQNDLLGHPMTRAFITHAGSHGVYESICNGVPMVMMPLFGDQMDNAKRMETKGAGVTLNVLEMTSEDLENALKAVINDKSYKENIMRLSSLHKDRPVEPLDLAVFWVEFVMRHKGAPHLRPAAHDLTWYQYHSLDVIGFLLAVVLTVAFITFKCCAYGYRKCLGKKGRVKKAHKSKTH
In words: Activity of human recombinant UGT1A10 assessed as intrinsic clearance incubated for 5 mins prior to UDPGA addition measured after 90 mins. Conditions: recombinant enzyme, 1.5 h.

Data set [5] concerns the target T4, UDP-glucuronosyltransferase 1A1 (Homo sapiens, UniProt P22309).
T4 sequence (P22309 whole entry): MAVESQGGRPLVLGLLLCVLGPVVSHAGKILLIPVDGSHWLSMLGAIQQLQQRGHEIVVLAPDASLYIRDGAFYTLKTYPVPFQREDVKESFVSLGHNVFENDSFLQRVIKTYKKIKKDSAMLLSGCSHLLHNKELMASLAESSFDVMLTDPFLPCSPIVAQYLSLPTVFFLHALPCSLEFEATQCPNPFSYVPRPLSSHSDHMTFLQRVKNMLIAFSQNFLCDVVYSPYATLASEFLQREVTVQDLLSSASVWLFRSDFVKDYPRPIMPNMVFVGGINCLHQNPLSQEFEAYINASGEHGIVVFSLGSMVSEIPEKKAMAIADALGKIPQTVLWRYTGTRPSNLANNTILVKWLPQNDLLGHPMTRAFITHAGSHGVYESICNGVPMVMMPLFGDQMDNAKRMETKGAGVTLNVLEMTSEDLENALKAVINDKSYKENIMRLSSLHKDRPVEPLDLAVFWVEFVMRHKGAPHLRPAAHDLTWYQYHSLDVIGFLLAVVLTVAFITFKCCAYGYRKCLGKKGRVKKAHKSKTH
In words: Drug metabolism assessed as human recombinant UGT1A1-mediated irilone-O-4'-monoglucuronide formation at 25 uM incubated for 5 mins prior to UDPGA addition measured after 90 mins by HPLC-DAD analysis. Conditions: recombinant enzyme, 1.5 h.

Data set [6] has as its target T1, UDP-glucuronosyltransferase 1A7. In words: Substrate inhibition of human recombinant UGT1A7 assessed as IRI-O-5-monoglucuronide formation incubated for 5 mins prior to UDPGA addition measured after 90 mins by Eadie-Hoftsee plot analysis.
Data set [7] concerns the target T4, UDP-glucuronosyltransferase 1A1. In words: Substrate inhibition of human recombinant UGT1A1 assessed as IRI-O-4'-monoglucuronide formation incubated for 5 mins prior to UDPGA addition measured after 90 mins by Eadie-Hoftsee plot analysis.
Data set [8] addresses T3, UDP-glucuronosyltransferase 1A10. In words: Drug metabolism assessed as human recombinant UGT1A10-mediated irilone-O-4'-monoglucuronide formation incubated for 5 mins prior to UDPGA addition measured after 90 mins by HPLC-DAD analysis. Conditions: recombinant enzyme, 1.5 h.
The target of data set [9] is T1, UDP-glucuronosyltransferase 1A7. In words: Drug metabolism assessed as human recombinant UGT1A7-mediated irilone-O-4'-monoglucuronide formation at 25 uM incubated for 5 mins prior to UDPGA addition measured after 90 mins by HPLC-DAD analysis. Conditions: recombinant enzyme, 1.5 h.
The target in data set [10] is Liver microsome. The experiment in a line: Drug metabolism in human liver microsomes assessed as substrate inhibition of IRI-O-5-monoglucuronide formation incubated for 5 mins prior to UDPGA addition measured after 90 mins by Eadie-Hoftsee plot analysis.
The target of data set [11] is T2, UDP-glucuronosyltransferase 1A8. The experiment in a line: Activity of human recombinant UGT1A8 assessed as intrinsic clearance incubated for 5 mins prior to UDPGA addition measured after 90 mins. Conditions: recombinant enzyme, 1.5 h.
The target in data set [12] is Liver microsome. In words: Drug metabolism in human liver microsomes assessed as substrate inhibition of IRI-O-4'-monoglucuronide formation incubated for 5 mins prior to UDPGA addition measured after 90 mins by Eadie-Hoftsee plot analysis.

As for `O=c1c(-c2ccc(O)cc2)coc2cc3c(c(O)c12)OCO3`, the CL came out at 3900 µL/min/mg in [1], 99900 µL/min/mg in [4] and 20200 µL/min/mg in data set [11]. Besides, the Drug metabolism result in data set [2], in data set [5], in [8] and in data set [9] was “metabolite_detected” each time. The Ki in [3] is 23.4 µM; in data set [6], 101 µM; in [7], 14.1 µM; on Liver microsome [10] it was 96.9 µM; on Liver microsome [12] it was 50.9 µM.
